Several values for one entry are separate records, joined by “and”; a condition that tells them apart may be missing. Identical values can stand only once.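 How tested: cells in 96-well plates exposed to compound for 48 hours at five concentrations. GI50: concentration for 50% inhibition of growth. TGI marks complete inhibition of growth.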
How the values were obtained:
Assay in all cases: growth of human tumour cells (NCI), 48 h
[1] = system: SF-268 CNS
[2] = system: SK-MEL-5 melanoma
[3] = system: HCT-15 colon
[4] = system: A498 renal
[5] = system: UACC-257 melanoma
[6] = system: IGROV1 ovarian
[7] = system: SR leukemia

SMILES | GI50 [1] | TGI [1] | GI50 [2] [nM] | TGI [2] | GI50 [3] [nM] | TGI [3] | GI50 [4] | TGI [4] | GI50 [5] | TGI [5] | GI50 [6] [nM] | TGI [6] [µM] | GI50 [7] | TGI [7]
CN1c2ccccc2C(C)(C)C12C=Cc1cc(O)ccc1O2 (configuration not stated) | 2.76 µM | 10.5 µM | 2380 | 9.94 µM | 3410 | 14 µM | 2.39 µM | 6.3 µM | 2.94 µM | 12.1 µM | 4690 | 14.9 | – | –
Cc1cc(N(CCNc2ccnc3cc(Cl)ccc23)Cc2ccco2)nc(Cl)n1 | 2.16 µM | 6.01 µM | 1720 | 3.13 µM | 1640 | 3.19 µM | 1.87 µM | 4.21 µM | 1.9 µM | 3.68 µM | – | – | – | –
C[C@@H](CO)[C@@H]1CCC=C2CC[C@]3(C)[C@H](CC[C@@H]4[C@@]5(C)CCCNC(C)(C)[C@@H]5CC[C@]43C)[C@H]21 | 4.48 µM | 19.5 µM | 1770 | 3.18 µM | 1490 | 2.99 µM | 5.41 µM | 23 µM | 2.59 µM | 7.08 µM | 1780 | 3.41 | 5440 nM | > 100 µM
COC(=O)CCCC(=O)O | – | > 100 µM | – | > 100 µM | – | > 100 µM | – | > 100 µM | – | > 100 µM | – | > 100 | – | > 100 µM
COc1ccc2c(c1)n([O-])c1ccccc1[n+]2=O | 31.5 µM and 15.2 µM | > 100 µM and 53.7 µM | – | 98.5 µM and 39.8 µM | – | > 100 µM and 37.3 µM | 82.6 µM and 18.3 µM | > 100 µM and 60.4 µM | 46.5 µM and 17.9 µM | > 100 µM and 40.2 µM | – | 19.1 | 7560 nM and 2420 nM | 59.6 µM and 12.2 µM
CN(CC(=O)N(Cc1ccc(C2CCCCC2)cc1)c1ccc(C(=O)O)c(O)c1)S(=O)(=O)c1c(F)c(F)c(F)c(F)c1F | 7.19 µM | 20.9 µM | 14000 | 27.3 µM | 2080 | 4.43 µM | 13.2 µM | 26.1 µM | 3.93 µM | 8.53 µM | 1850 | 4.08 | 1900 nM | 4.28 µM
COc1cc2c3c(n(CCCI)c(=O)c2cc1OC)-c1cc2c(cc1C3=O)OCO2 | 1.34 µM | > 100 µM | 1810 | 8.5 µM | 475 | > 100 µM | 6.79 µM | > 100 µM | 3.77 µM | 49.4 µM | 5240 | > 100 | – | –
COc1cc2c(cc1C)NC(=O)/C2=C\c1cccc(Oc2ccccc2)c1 | 13.9 µM | 31.5 µM | 11600 | 23.8 µM | 13300 | 26.2 µM | 10.5 µM | 22.5 µM | 21.7 µM | 52.3 µM | 14500 | 29.4 | 5680 nM | 31.4 µM
CN(C)c1ccc(Nc2cc(-c3cccc(OC(F)(F)F)c3)nc3ccc(N4CCCC4)cc23)cc1 | 1.85 µM | 3.54 µM | 1820 | 3.3 µM | 1750 | 3.53 µM | 2.47 µM | 10.6 µM | 1.75 µM | 3.35 µM | 1560 | 3.06 | – | –
COc1ccc(-c2nc3ccccn3c2/C=C/C(=O)c2cc(OC)c(OC)c(OC)c2)cc1 | 4 µM | > 100 µM | 2720 | 14.3 µM | 4850 | > 100 µM | 10.4 µM | 43.9 µM | 5.85 µM | > 100 µM | 8860 | > 100 | 3710 nM | > 100 µM
CN1CCN(c2ccc3nc(-c4ccc5nc(-c6ccc(OCCC(C)(C)C)cc6)[nH]c5c4)[nH]c3c2)CC1 | 6.58 µM | 25.4 µM | 12700 | 27.6 µM | 12100 | 28.2 µM | 17.5 µM | 35.1 µM | 20.5 µM | 38.3 µM | 7690 | 31.6 | 2900 nM | 8.05 µM
Nc1nc(-c2ccccc2)nc(N)c1N=O | 12.3 µM | 39.2 µM | 8210 | 20.8 µM | 3030 | 11.1 µM | 15.6 µM | 30.6 µM | 8.75 µM | 44.3 µM | 11800 | 54 | 3630 nM | 54.9 µM
COc1cc(Nc2ccnc(NCCCNc3ccnc4cc(Cl)ccc34)n2)cc(OC)c1 | 1.8 µM | 3.88 µM | 1510 | 2.84 µM | 1510 | 3.09 µM | 1 µM | 2.81 µM | 1.84 µM | 3.44 µM | 2230 | 5.73 | 423 nM | 2.08 µM
O=C1c2ccccc2C(=O)c2c1ccc(C1C(=O)c3ccccc3C1=O)c2-c1c(C2C(=O)c3ccccc3C2=O)ccc2c1C(=O)c1ccccc1C2=O | – | > 100 µM | – | > 100 µM | – | > 100 µM | – | > 100 µM | – | > 100 µM | – | > 100 | – | –
Fc1ccc(Nc2nc3nonc3nc2Nc2ccc(F)cc2)cc1 | 0.505 µM | 14.3 µM | 229 | 0.702 µM | 384 | 11.7 µM | 0.163 µM | 0.66 µM | 0.401 µM | 3.16 µM | 570 | 13.8 | 447 nM | 2.75 µM
CCCCCCCCCc1cccc(N2C(N)=NC(N)=NC2(C)C)c1 | – | – | – | – | – | 0.169 µM | – | 16.7 µM | – | 2.13 µM | – | – | – | –
O=[N+]([O-])c1c(Br)sc(Br)c1[N+](=O)[O-] | 12.5 µM | 25 µM | 4880 | 17.2 µM | 1590 | 4.48 µM | 13.2 µM | 26 µM | 1.52 µM | 3.04 µM | 1980 | 5.38 | 633 nM | 11.7 µM
Nc1nc(-c2ccc(F)cc2)c(-c2ccc3ncccc3n2)s1 | 16.5 µM | > 25 µM | 13100 | > 25 µM | 14100 | > 25 µM | 3.83 µM | 19.4 µM | > 25 µM | > 25 µM | 5440 | > 20.9 | > 25000 nM | > 25 µM
COc1cc(OC)c(/C=C/c2cnc3ccccc3n2)c(OC)c1 | – | > 10 µM | – | > 10 µM | – | > 10 µM | – | > 10 µM | – | > 10 µM | – | > 10 | – | –
COc1cc2c(cc1Nc1nc(Nc3ccsc3C(N)=O)c3cc[nH]c3n1)N(C(=O)CN(C)C)CCC2(C)C | 2.6 µM | 5.75 µM | 797 | 3.89 µM | 1840 | 5.62 µM | 1.18 µM | 4.97 µM | 0.0753 µM | 4.34 µM | 3230 | 7.31 | 5.96 nM | 4.6 µM
Cc1cccc2c(=O)c3c(sc12)c(NCCNCCO)nc1ccccc13 | 1.54 µM | 3.15 µM | 1650 | 3.08 µM | 1460 | 2.89 µM | 1.67 µM | 3.7 µM | 1.86 µM | 3.79 µM | 1190 | 2.65 | – | –
O=C(NCc1ccc(Cn2c(=O)sn(-c3ccccc3)c2=O)cc1)OCc1ccc2c(Br)cc(Br)c(O)c2n1 | 1.46 µM | 2.88 µM | 1440 | 2.75 µM | 222 | 0.572 µM | 1.53 µM | 2.9 µM | 1.26 µM | 2.74 µM | 428 | 1.58 | 376 nM | > 100 µM
C=C1CCC2C(C)(C)CCC[C@]2(C)[C@H]1CO (some centres not stated) | > 100 µM | > 100 µM | 68200 | > 100 µM | 56900 | > 100 µM | – | – | > 100 µM | > 100 µM | > 100000 | > 100 | – | –
COc1ccc(/C(C#N)=C/c2ccc(OC)c(OC)c2)cc1 | – | > 100 µM | – | > 100 µM | – | > 100 µM | – | > 100 µM | – | > 100 µM | – | > 100 | – | –
CCNC(=O)c1cc2c(-c3cc(C(C)(C)O)ccc3Oc3c(C)cc(F)cc3C)cn(C)c(=O)c2[nH]1 | 3.58 µM | 18.6 µM | 2090 | 6.89 µM | 1840 | 14.2 µM | 0.898 µM | 4.84 µM | 2.27 µM | 18.5 µM | 1390 | 11.2 | – | –
C=C1CC/C=C(\C)C(=O)C[C@@H]2[C@@H]1CC2(C)C | – | 52.7 µM | – | 10.5 µM | – | 3.23 µM | – | > 30 µM | – | 16 µM | – | 12.9 | – | –
COc1cc(C2=C(C#Cc3ccccc3)COC2=O)cc(OC)c1OC | 4.59 µM | > 100 µM | 2560 | 20.1 µM | 1300 | 9.39 µM | 41.1 µM | > 100 µM | 6.17 µM | > 70.4 µM | – | > 100 | – | –
Cn1ccnc1C(=O)/C=C/c1ccccc1 | – | – | 2920 | 12.5 µM | 2770 | 13.8 µM | 5.05 µM | 17 µM | 4.07 µM | 16.2 µM | 2660 | 14 | 1380 nM | 6.05 µM
Nc1nc(-c2ccccc2)nc2c1[n+]([O-])c1ccccc1[n+]2[O-] | – | > 100 µM | – | > 100 µM | – | > 100 µM | – | > 100 µM | – | > 100 µM | – | > 100 | – | –

Reference: PubChem BioAssay (NCI)
